Among the data in US9227971B2, “Pyrazolo[1,5-a]pyrimidine compounds as mTOR inhibitors” (Merck Sharp & Dohme Corp., priority 2010, dated 2016) are IC50 values, retold here.

Assay [1] concerns phosphorylated AKT Ser473 (pAKT S473), mTORC2 activity, PC3 cells. The experiment in a line: mTOR target engagement assay, immunofluorescent cell-based, pAKT S473 readout (mTORC2 activity). Put shortly:
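After blocking, cells were stained overnight at 4 °C with anti-pAKT S473 antibody, then a fluorescent secondary; inhibition was read as reduced fluorescence intensity.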

Assay [2] has as its system phosphorylated 4E-BP1 Thr37/46 (p4E-BP1 Thr37/46), mTORC1 activity, PC3 cells. The assay is described as follows: mTOR target engagement assay, immunofluorescent cell-based, p4E-BP1 Thr37/46 readout (mTORC1 activity). To be noted: read-out: p4E-BP1 Thr37/46 IC50. Put shortly:
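Read-out is fluorescence intensity of immunostained p4E-BP1 Thr37/46 in fixed PC3 cells, fitted to a logistic curve for IC50 with DMSO-only wells as top. Cells had been exposed to serial compound dilutions for ninety minutes at 37° C in 5% FBS medium with 0.25% DMSO.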

[3] abbreviates: Homo sapiens, PC-3, PC3 cells, compound treatment ninety minutes at 37° C.
Where [4] appears, read: Homo sapiens, PC-3, Table 3-1, PC3 cells.

Where two headings read alike, the source gives them in different places.

On to `CC(=O)c1c(C2CC3CS(=O)(=O)CC(C2)N3C(=O)c2nc[nH]n2)nc2c(-c3ccc(-c4ccccc4)nc3)cnn2c1N` (stereo not drawn) [Compound 8.38, endo/exo-7-[6-acetyl-7-amino-3-(6-phenyl-3-pyridinyl)pyrazolo[1,5-a]pyrimidin-5-yl]-9-(4h-1,2,4-triazol-3-ylcarbonyl)-3-thia-9-azabicyclo[3.3.1]nonane, 3,3-dioxide], for which the IC50 in assay [1] (Homo sapiens, PC-3, PC3 cells) was 100 to 1000 nM; in assay [2] (Homo sapiens, PC-3, PC3 cells), 100 to 1000 nM.

For the compound `Nc1c(Br)c([C@@H]2C[C@H]3CC[C@@H](C2)N3C(=O)c2nc[nH]n2)nc2c(-c3ccc(-c4ccccc4)nc3)cnn12` [Compound 2.1, ((1R,3s,5S)-3-(7-amino-6-bromo-3-(6-phenylpyridin-3-yl)pyrazolo[1,5-a]pyrimidin-5-yl)-8-azabicyclo[3.2.1]octan-8-yl)(1H-1,2,4-triazol-3-yl)methanone], the IC50 in assay [1] (setting [3]) fell in the range of 100 to 1000 nM; in assay [2] (setting [3]) it was 1 to 100 nM.

For `CS(=O)(=O)c1c([C@@H]2C[C@H]3CC[C@@H](C2)N3C(=O)c2nnc[nH]2)nc2c(-c3ccc(-c4cccc(F)c4)nc3)cnn2c1N` [Compound 3.46, ((1R,3s,5S)-3-(7-amino-3-(6-(3-fluorophenyl)pyridin-3-yl)-6-(methylsulfonyl)pyrazolo[1,5-a]pyrimidin-5-yl)-8-azabicyclo[3.2.1]octan-8-yl)(4H-1,2,4-triazol-3-yl)methanone], the IC50 in assay [1] (setting [4]) and in assay [2] (setting [4]) was 1 to 100 nM throughout.

Consider `CC(=O)c1c(C2CC3COCC(C2)N3C(=O)CO)nc2c(-c3ccc(-c4ccccc4)nc3)cnn2c1N` (stereo not drawn) [Compound 8.28, 1-(7-(6-acetyl-7-amino-3-(6-phenylpyridin-3-yl)pyrazolo[1,5-a]pyrimidin-5-yl)-3-oxa-9-azabicyclo[3.3.1]nonan-9-yl)-2-hydroxyethanone], for which the IC50 lay in the range of 100 to 1000 nM in assay [1] (Homo sapiens, PC-3, PC3 cells) and 100 to 1000 nM in assay [2] (Homo sapiens, PC-3, PC3 cells).

As to `CS(=O)(=O)c1c(C2CC3COCC(C2)N3C(=O)c2nc[nH]n2)nc2c(-c3ccc(-c4ccccc4)nc3)cnn2c1N` (single isomer, unassigned) [Compound 8.31, (7-(7-amino-6-(methylsulfonyl)-3-(6-phenylpyridin-3-yl)pyrazolo[1,5-a]pyrimidin-5-yl)-3-oxa-9-azabicyclo[3.3.1]nonan-9-yl)(1H-1,2,4-triazol-3-yl)methanone], the IC50 in assay [1] (PC3 cells) and in assay [2] (PC3 cells) was 100 to 1000 nM throughout.

With `CC(=O)c1c([C@@H]2C[C@H]3CC[C@@H](C2)N3C(=O)c2nc[nH]n2)nc2c(-c3ccc(-c4ncc(C(F)F)s4)nc3)cnn2c1N` [Compound 1.1.26, 1-(5-((1R,3s,5S)-8-(1H-1,2,4-triazole-3-carbonyl)-8-azabicyclo[3.2.1]octan-3-yl)-7-amino-3-(6-(5-(difluoromethyl)thiazol-2-yl)pyridin-3-yl)pyrazolo[1,5-a]pyrimidin-6-yl)ethanone], the IC50 in assay [1] (setting [3]) and in assay [2] (setting [3]) was 100 to 1000 nM in each case.

For `CC(=O)c1c([C@@H]2C[C@H]3CC[C@@H](C2)N3C(=O)[C@@H](C)O)nc2c(-c3ccc(-c4ccccc4)nc3)cnn2c1N` [Compound 1.1.2], the IC50 in assay [1] (setting [3]) was 1 to 100 nM; in assay [2] (setting [3]), 100 to 1000 nM.

Turning to `CC(=O)c1c([C@@H]2C[C@H]3CC[C@@H](C2)N3C(=O)CO)nc2c(-c3ccc(-c4nccs4)nc3)cnn2c1N` [Compound 1.1.33, 1-((1R,3s,5S)-3-(6-acetyl-7-amino-3-(6-(thiazol-2-yl)pyridin-3-yl)pyrazolo[1,5-a]pyrimidin-5-yl)-8-azabicyclo[3.2.1]octan-8-yl)-2-hydroxyethanone], the IC50 lay within 1 to 100 nM in assay [1] (setting [3]) and 100 to 1000 nM in assay [2] (setting [3]).

For `COc1ncc(-c2ccc(-c3cnn4c(N)c(S(C)(=O)=O)c([C@@H]5C[C@H]6CC[C@@H](C5)N6C(=O)c5nnc[nH]5)nc34)cn2)cn1` [Compound 3.58, ((1R,3s,5S)-3-(7-amino-3-(6-(2-methoxypyrimidin-5-yl)pyridin-3-yl)-6-(methylsulfonyl)pyrazolo[1,5-a]pyrimidin-5-yl)-8-azabicyclo[3.2.1]octan-8-yl)(4H-1,2,4-triazol-3-yl)methanone], the IC50 in assay [1] (Table 3-1, PC3 cells) fell in the range of 1000 to 10000 nM; in assay [2] (Table 3-1, PC3 cells) it was 1000 to 10000 nM.
